Assay results reported in patent US20260285810A1, “CRYSTAL FORM OF MUSCARINE ANTAGONIST, METHOD FOR PREPARING SAME, AND USE THEREOF” (SICHUAN KELUN PHARMACEUTICAL RESEARCH INSTITUTE CO., LTD., priority 2023, published 2026).

Columns and labels:
Assay type in all cases: physicochemical
[1] = Temperature- and humidity-mediated crystal transformation (XRPD, HPLC purity, KF water content)
Procedure: (§1) The XRPD pattern of the crystal form is collected using an X'Pert3 Powder diffractometer, which uses Cu […] irradiation and performs detection using Absolute scan at room temperature. The detection range is from 3.5° to 40°, with a step size of 0.013°, a dwell time of 50 s, and one scan.
Samples 1 and 2 were tested for XRPD, HPLC purity, and KF water content.

[2] = Influencing factors stability: high temperature, high humidity, illumination, accelerated conditions (XRPD, HPLC purity); conditions: for remaining at 840 h: solid state
Source text: Samples were collected and tested for XRPD and HPLC purity at day 0, day 5, day 10, and day 35, respectively.

[3] = Angle of repose (powder comprehensive characteristic tester); conditions: Example 1 batch
Procedure: The powder falls through the funnel to form a cone, and then the angle between the inclined plane and the horizontal plane is determined. The test is repeated in triplicate.

[4] = Bulk density and tap density (powder density tester); conditions: Example 1 batch
Procedure: The top surface is carefully leveled, and the apparent volume is recorded. The cylinder is then placed on the powder density tester and shaken at a frequency of 1250. The taped volume is recorded, and then the tap density is calculated. The same batch of samples is tested three times in parallel.

[5] = Accelerated and long-term storage, crystal form by XRPD
Procedure: The packaged samples were stored under conditions of 30° C./35% RH and 40° C./75% RH, and collected and investigated for crystal forms at day 0, 3 months, and 6 months, respectively.

[6] = Particle size distribution (Malvern Mastersizer 3000); conditions: Example 1 batch; dispersion solvent water
Procedure: Test method: The particle type is set as non-spherical, the particle refractive index is 1.52, the particle absorption rate is 0.001, and the rotation speed is 1800 rpm; the obscuration is 2%-15%, the sample background test time is 10 seconds, the dispersion solvent is water, the dispersant refractive index is 1.330, and the stabilization time is about 30 seconds; the number of tests is 3.

[7] = Dynamic vapor sorption (DVS) evaluation; conditions: DVS 25° C.
Procedure: The DVS pattern of the crystal form is tested using a DVS Intrinsic (SMS) at a test temperature of 25° C. and detected in cycle-DMDT mode.
Dynamic vapor sorption curve (also referred to as adsorption-desorption characteristic curve) was evaluated using a DVS Intrinsic (SMS). Approximately 30 mg of the sample prepared in Example 1 was subjected to a three-stage programmed scanning method at room temperature (25° C.) as follows: the first-stage hygroscopicity program involving a stepwise increase in relative humidity from 60% RH to 90% RH, with a relative humidity change rate of 10% RH/step; the second-stage hygroscopicity program involving a stepwise decrease in relative humidity from 90% RH to 0% RH, with a relative humidity change rate of 10% RH/step; and the third-stage hygroscopicity program involving a stepwise increase in relative humidity from 0% RH to 90% RH, with a relative humidity change rate of 10% RH/step. The mass change rate mode (dm/dt mode) was used, where when the mass change rate (dm/dt) was ≤0.005%, the instrument program controlled the switching of the relative humidity (RH) to the next stage and maintained constant humidity (+/−10% RH).

[8] = Hygroscopic weight gain on storage at 80% humidity for 24 hours; conditions: stored under a humidity condition of 80%+2% for 24 hours
[9] = Drying of wet crystal product with Karl Fischer water content and XRPD testing; conditions: drying at 30° C.-35° C., vacuum
Procedure: as §1
The wet crystal product of Example 1 was dried under conditions of a temperature of 30° C.-35° C. and a vacuum degree of −0.08 Mpa. During the drying, the samples were collected for Karl Fischer water content testing and XRPD.

[10] = before/after drying (30° C., vacuum, humidity ≤20%, 24 h) and re-storage (RH 60%-80%, 25° C.-30° C., 24 h)
[11] = Illumination at 25° C. (4500 lx), day 35
[12] = day 0, Example 3 batch, packaged

## CN(CCN1CCC(OC(=O)Nc2ccccc2-c2ccccc2)CC1)C(=O)c1ccc(CN2CCC(C(N)=O)CC2)cc1 [crystal form A of revefenacin]
[1]; [10]
  HPLC %: 99.79%
  KF/water content: 9.1%
  XRPD: Crystal form A
[1]; during the temperature- and humidity-mediated mutual transformation of crystal forms
  chemical purity of the crystal form: remains unchanged
[2]; 40° C., day 5
  XRPD crystal form: form A
[2]; 40° C., day 10
  XRPD crystal form: form A
[2]; 40° C., day 35
  XRPD crystal form: Crystal form A
  remaining at 840 h: 99.9%
[2]; 40° C./75% RH, day 5
  XRPD crystal form: form A
[2]; 40° C./75% RH, day 10
  XRPD crystal form: form A
[2]; 40° C./75% RH, day 35
  XRPD crystal form: Crystal form A
  remaining at 840 h: 99.9%
[2]; 92.5% RH (25° C.), day 5
  XRPD crystal form: form A
[2]; 92.5% RH (25° C.), day 10
  XRPD crystal form: form A
[2]; 92.5% RH (25° C.), day 35
  XRPD crystal form: Crystal form A
  remaining at 840 h: 99.9%
[2]; Illumination at 25° C. (4500 lx), day 5
  XRPD crystal form: form A
[2]; Illumination at 25° C. (4500 lx), day 10
  XRPD crystal form: form A
[2]; [11]
  XRPD crystal form: Crystal form A
  remaining at 840 h: 99.9%
[2]; [12]
  Purity (HPLC): Purity: 99.87%
  XRPD crystal form: form A
[2]; high temperature (40° C.), high humidity (92.5% RH), illumination and accelerated (40° C./75% RH) conditions
  crystal form on exposure to stress conditions: remains unchanged
[3]
  powder angle of repose: 45 °
[4]
  bulk density: 0.285 g/mL
  tap density: 0.494 g/mL
[5]; 3-month and 6-month storage under the accelerated condition (40° C./75% RH)
  crystal form and crystallinity: remains unchanged in both crystal form and crystallinity
[5]; 30° C./35% RH, 6 months
  crystal form: Crystal form A
[5]; 30° C./35% RH, day 0
  crystal form: Crystal form A
[5]; 40° C./75% RH, 3 months
  crystal form: Crystal form A
[5]; 40° C./75% RH, 6 months
  crystal form: Crystal form A
[5]; 40° C./75% RH, day 0
  crystal form: Crystal form A
[5]; long-term conditions (30° C./35% RH) for 6 months
  crystal form and crystallinity: remains unchanged in both crystal form and crystallinity
[6]
  particle size D10: 8.40 μm
  particle size D50: 25.86 μm
  particle size D90: 53.59 μm
[7]; humidity increased from 60% RH to 90% RH, sample of Example 1
  hygroscopic weight gain: < 0.4%
[7]; within the range of 30%-90% RH, sample of Example 1
  hygroscopic weight gain: < 2%
[7]; sample of Example 1
  crystal form of the samples collected during the DVS process: remains unchanged
[7]; sample of Example 1, FIG. 5
  DVS curve characteristics: reversible adsorption/desorption characteristics and low hygroscopicity
[8]
  hygroscopic weight gain: < 2%
[9]; KF water content=7.1%
  crystal form (XRPD): mixed crystals
[9]; KF water content=8.3%
  crystal form (XRPD): crystal form A
[9]; KF water content=8.9%
  crystal form (XRPD): crystal form A
[9]; KF water content=17%
  crystal form (XRPD): crystal form A
